Tests used:
Format in all cases: cell-based
FGFR2 = target: T1, FGFR2 (Homo sapiens, UniProt P21802, K310R/N549K); test: pERK potency assay (In Cell ELISA), AN3CA cells; conditions: for IC50: pERK, AN3CA (FGFR2/k310R, N549K) cells, 3 hours; for FGFR1 IC50/FGFR2 IC50 / FGFR3 IC50/FGFR2 IC50: selectivity ratio, pERK potency; for FGFR1 IC50/FGFR2 IC50: FGFR2 relative to FGFR1; for FGFR3 IC50/FGFR2 IC50: FGFR2 relative to FGFR3
T1 construct: in FGFR aberrations of AN3CA (FGFR2/k310R, N549K); host or cells: AN3CA
From the text: (§1) The purpose of this assay is to measure the ability of test compounds to inhibit FGFR mediated downstream signaling cascades, i.e., ERK phosphorylation in cells with FGFR aberrations. FGFR aberrations become constitutively active and thus induces cascades of cellular signaling events that result in increased phosphorylation of ERK at Threonine 202 and Tyrosine 204 (pERK). The procedure called In Cell ELISA described below measures the level of cellular pERK in response to FGFR specific inhibitor compounds in FGFR aberrations of AN3CA (FGFR2/k310R, N549K), DMS114 (FGFR1 amplification), RT112 (FGFR3 overexpression/FGFR3-TACC3 fusion) and Hep3B (FGF19 amplification) cells. AN3CA, DMS114 and Hep3B cells are from ATCC. RT112 cells are from Sigma. DMS114 cells are grown and maintained using RPMI-1640 medium supplemented with 10% heat-inactivated fetal bovine serum. AN3CA, Hep3B and RT112 cells are grown and maintained using DMEM supplemented with 10% heat-inactivated fetal bovine serum. On the day before test compound addition, cells are plated in poly-D-lysine coated 96-well cell culture plates (Corning® BioCoat® Cat #356640) at 40000 cells/well/100 μL and grown overnight in a 37° C., 5% CO2 incubator. Test compounds are prepared with 4-fold serial dilutions in DMSO, with a top concentration of 10 μM. On the day of the assay, 50 μL of test compound diluted in media was added to each well of cell culture plate with the final concentration of compounds spanning from 0.000038 μM to 10 μM. After compound addition, cells are incubated for 3 hours at 37° C., 5% CO2 and then the culture medium is removed. Cells are fixed with 4% formaldehyde in phosphate-buffered saline (PBS) and incubated at RT for 20 min. The plate is then washed three times with PBST (PBS with 0.05% tween-20), followed by the incubation with 100 μL of pre-cooled methanol at −20° C. for 20 min. After incubation, methanol is removed, and the plate is washed once with PBST. Cells are permeabilized with 100 µL/well of 0.1% Triton X-100 in PBS at RT for 20 min and then quenched with quenching buffer (PBST containing 1% H2O2 and 0.1% sodium azide) for 20 min at RT with gentle shaking. After washing once with PBST, blocking buffer (250 ul/well, Pierce™ Protein-Free-PBS Blocking Buffer, Cat #37572) was then added to the cells for 1-h incubation at RT, followed by anti-pERK antibody (cell signaling, 1:1000 dilution in 5% BSA in PBST) incubation overnight at 4° C. and secondary antibody-HRP (Jackson immunoresearch, 1:3000 dilution in 5% BSA in PBST) incubation at RT for 1 h. PBST wash is carried out after each step three times. Before the addition of the substrate (Advansta ELISABright), the plate is washed with PBS twice to remove detergent residues. Cellular pERK level is determined using the microplate reader (Biotek Synergy H1) to detect the chemiluminescence signal. IC50 is determined by fitting a 4-parameter sigmoidal concentration-response model. FGFR wild type cells (H1975, PC-9 and AGS) are used to serve as negative control (FGFR selectivity) with the same assay procedures described above.

FGFR1 = target: T2, FGFR1 (Homo sapiens, UniProt P11362); test: pERK potency assay (In Cell ELISA), DMS114 cells; conditions: DMS114 (FGFR1 amplification) cells, 3 hours
T2 construct: DMS114 (FGFR1 amplification); host or cells: DMS114
From the text: as §1

FGFR3 = target: T3, FGFR3 (Homo sapiens, UniProt P22607); test: pERK potency assay (In Cell ELISA), RT112 cells; conditions: RT112 (FGFR3 overexpression/FGFR3-TACC3 fusion) cells, 3 hours
T3 construct: RT112 (FGFR3 overexpression/FGFR3-TACC3 fusion); host or cells: RT112; the other entry of the earlier key: TACC3 (Q9Y6A5, Transforming acidic coiled-coil-containing protein 3)
From the text: as §1

T2 sequence (P11362 22-822): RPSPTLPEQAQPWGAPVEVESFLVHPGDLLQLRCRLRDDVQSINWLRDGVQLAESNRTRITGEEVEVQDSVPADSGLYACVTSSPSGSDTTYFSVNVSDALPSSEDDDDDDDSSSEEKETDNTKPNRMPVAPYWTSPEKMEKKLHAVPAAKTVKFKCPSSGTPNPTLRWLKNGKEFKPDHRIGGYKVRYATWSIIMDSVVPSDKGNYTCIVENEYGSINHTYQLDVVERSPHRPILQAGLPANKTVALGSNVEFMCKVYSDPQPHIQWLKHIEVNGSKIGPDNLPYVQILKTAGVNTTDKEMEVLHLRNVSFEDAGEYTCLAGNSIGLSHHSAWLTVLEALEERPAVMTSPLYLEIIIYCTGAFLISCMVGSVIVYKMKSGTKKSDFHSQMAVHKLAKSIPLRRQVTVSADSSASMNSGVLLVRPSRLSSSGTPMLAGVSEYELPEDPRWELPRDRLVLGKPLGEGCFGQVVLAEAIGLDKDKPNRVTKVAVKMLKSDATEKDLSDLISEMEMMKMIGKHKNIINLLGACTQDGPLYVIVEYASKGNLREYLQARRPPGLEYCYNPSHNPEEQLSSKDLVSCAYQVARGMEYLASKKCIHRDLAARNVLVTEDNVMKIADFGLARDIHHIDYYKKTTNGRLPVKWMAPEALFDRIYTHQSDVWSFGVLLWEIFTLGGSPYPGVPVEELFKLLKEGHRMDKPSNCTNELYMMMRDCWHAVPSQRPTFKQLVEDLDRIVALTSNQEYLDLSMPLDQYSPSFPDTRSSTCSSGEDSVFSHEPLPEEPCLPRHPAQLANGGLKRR
T1 sequence (P21802 22-821 K310R/N549K): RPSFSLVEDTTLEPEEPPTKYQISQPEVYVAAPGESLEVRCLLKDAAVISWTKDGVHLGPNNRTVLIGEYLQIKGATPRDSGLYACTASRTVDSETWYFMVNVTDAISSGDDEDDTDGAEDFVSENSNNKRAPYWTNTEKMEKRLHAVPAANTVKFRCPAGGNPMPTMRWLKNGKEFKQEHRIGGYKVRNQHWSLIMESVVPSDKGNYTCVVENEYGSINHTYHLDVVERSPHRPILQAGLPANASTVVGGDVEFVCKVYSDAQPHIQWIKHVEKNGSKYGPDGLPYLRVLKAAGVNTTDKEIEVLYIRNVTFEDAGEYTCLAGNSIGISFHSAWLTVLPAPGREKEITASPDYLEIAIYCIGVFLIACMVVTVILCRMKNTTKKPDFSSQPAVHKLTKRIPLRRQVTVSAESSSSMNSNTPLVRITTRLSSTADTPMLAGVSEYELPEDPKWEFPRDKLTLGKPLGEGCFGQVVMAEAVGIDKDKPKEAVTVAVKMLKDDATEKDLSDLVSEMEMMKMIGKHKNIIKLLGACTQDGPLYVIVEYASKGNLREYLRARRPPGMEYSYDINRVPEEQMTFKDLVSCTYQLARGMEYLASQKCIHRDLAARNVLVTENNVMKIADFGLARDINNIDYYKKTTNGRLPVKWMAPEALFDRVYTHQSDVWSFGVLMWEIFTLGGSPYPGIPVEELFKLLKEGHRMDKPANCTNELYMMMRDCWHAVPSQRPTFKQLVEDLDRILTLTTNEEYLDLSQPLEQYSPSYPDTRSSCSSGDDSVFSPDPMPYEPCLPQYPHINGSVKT

Row | SMILES | IC50 (FGFR2) [nM] | IC50 (FGFR1) [nM] | IC50 (FGFR3) [nM] | FGFR1 IC50/FGFR2 IC50 (FGFR2) | FGFR3 IC50/FGFR2 IC50 (FGFR2)
1 | C=CC(=O)N1CC2(CC(c3c(-c4ccc(Oc5ncccn5)cc4)c4c(N)ncnc4n3C)C2)C1 [Example 3, 1-(6-(4-amino-7-methyl-5-(4-(pyrimidin-2-yloxy)phenyl)-7H-pyrrolo[2,3-d]pyrimidin-6-yl)-2-azaspiro[3.3]heptan-2-yl)prop-2-en-1-one] | > 100 | > 100 | > 100 |  | 
2 | C=CC(=O)N1CCC2(CC=C(c3c(-c4cncc(F)c4)c4c(N)ncnc4n3C)CC2)CC1 [Example 27, 1-(9-(4-amino-5-(5-fluoropyridin-3-yl)-7-methyl-7H-pyrrolo[2,3-d]pyrimidin-6-yl)-3-azaspiro[5.5]undec-8-en-3-yl)prop-2-en-1-one] | 1 to 10 | > 100 | > 100 | F (a selectivity ratio greater than 50 but less than or equal to 150) | H (a selectivity ratio greater than 500 but less than or equal to 1000)
3 | C=CC(=O)N1CC2(CC=C(c3c(-c4ccc(Oc5ncccn5)cc4)c4c(N)ncnc4n3C)CC2)C1 [Example 1, 1-(7-(4-amino-7-methyl-5-(4-(pyrimidin-2-yloxy)phenyl)-7H-pyrrolo[2,3-d]pyrimidin-6-yl)-2-azaspiro[3.5]non-6-en-2-yl)prop-2-en-1-one] | 1 to 10 | > 100 | > 100 | I (a selectivity ratio greater than 1000 but less than or equal to 2000) | F (a selectivity ratio greater than 50 but less than or equal to 150)
4 | C=CC(=O)NC1CC2(CC=C(c3c(-c4ccc(OC)cc4)c4c(N)ncnc4n3C)CC2)C1 (centres unmarked) [Example 7, N-(7-(4-amino-5-(4-methoxyphenyl)-7-methyl-7H-pyrrolo[2,3-d]pyrimidin-6-yl)spiro[3.5]non-6-en-2-yl)acrylamide] | 10 to 30 | > 100 | > 100 |  | 
5 | C=CC(=O)N1CCC2(CC=C(c3c(-c4cccnc4)c4c(N)ncnc4n3C)CC2)CC1 [Example 12, 1-(9-(4-amino-7-methyl-5-(pyridin-3-yl)-7H-pyrrolo[2,3-d]pyrimidin-6-yl)-3-azaspiro[5.5]undec-8-en-3-yl)prop-2-en-1-one] | 10 to 30 | > 100 | > 100 | G (a selectivity ratio greater than 150 but less than or equal to 500) | H (a selectivity ratio greater than 500 but less than or equal to 1000)
6 | C=CC(=O)N1CCC2(CC=C(c3c(C(C)C)c4c(N)ncnc4n3C)CC2)CC1 [Example 15, 1-(9-(4-amino-5-isopropyl-7-methyl-7H-pyrrolo[2,3-d]pyrimidin-6-yl)-3-azaspiro[5.5]undec-8-en-3-yl)prop-2-en-1-one] | 10 to 30 | > 100 | > 100 |  | F (a selectivity ratio greater than 50 but less than or equal to 150)
7 | C=CC(=O)N1CCC2(CC=C(c3c(-c4ccc(OC)nc4)c4c(N)ncnc4n3C)CC2)CC1 [Example 30, 1-(9-(4-amino-5-(6-methoxypyridin-3-yl)-7-methyl-7H-pyrrolo[2,3-d]pyrimidin-6-yl)-3-azaspiro[5.5]undec-8-en-3-yl)prop-2-en-1-one] | ≤ 1 | > 100 | > 100 | G (a selectivity ratio greater than 150 but less than or equal to 500) | H (a selectivity ratio greater than 500 but less than or equal to 1000)

Continued, in another order:

Row | IC50 (FGFR2) [nM] | IC50 (FGFR1) [nM] | IC50 (FGFR3) [nM] | SMILES | FGFR1 IC50/FGFR2 IC50 (FGFR2) | FGFR3 IC50/FGFR2 IC50 (FGFR2)
8 | 30 to 100 | > 100 | > 100 | C=CC(=O)N1CCC2(CC=C(c3c(-c4ncccc4F)c4c(N)ncnc4n3C)CC2)CC1 [Example 49, 1-(9-(4-amino-5-(3-fluoropyridin-2-yl)-7-methyl-7H-pyrrolo[2,3-d]pyrimidin-6-yl)-3-azaspiro[5.5]undec-8-en-3-yl)prop-2-en-1-one] | G (a selectivity ratio greater than 150 but less than or equal to 500) | G (a selectivity ratio greater than 150 but less than or equal to 500)
9 | ≤ 1 | 30 to 100 | 30 to 100 | [2H]C([2H])([2H])Oc1ccc(-c2c(C3=C(F)CC4(CC3)CCN(C(=O)C=C)CC4)n(C)c3ncnc(N)c23)cc1 [Example 38, 1-(9-(4-amino-5-(4-(methoxy-d3)phenyl)-7-methyl-7H-pyrrolo[2,3-d]pyrimidin-6-yl)-8-fluoro-3-azaspiro[5.5]undec-8-en-3-yl)prop-2-en-1-one] | F (a selectivity ratio greater than 50 but less than or equal to 150) | F (a selectivity ratio greater than 50 but less than or equal to 150)
10 | 10 to 30 | > 100 | > 100 | C=CC(=O)N1CCC2(CC=C(c3c(-c4cccnn4)c4c(N)ncnc4n3C)CC2)CC1 [Example 61, 1-(9-(4-amino-7-methyl-5-(pyridazin-3-yl)-7H-pyrrolo[2,3-d]pyrimidin-6-yl)-3-azaspiro[5.5]undec-8-en-3-yl)prop-2-en-1-one] | G (a selectivity ratio greater than 150 but less than or equal to 500) | G (a selectivity ratio greater than 150 but less than or equal to 500)
11 | 1 to 10 | 30 to 100 | > 100 | C=CC(=O)N1CCC2(CC=C(c3c(-c4ccc(OC5CC5)cc4)c4c(N)ncnc4n3C(F)F)CC2)CC1 [Example 36, 1-(9-(4-amino-5-(4-cyclopropoxyphenyl)-7-(difluoromethyl)-7H-pyrrolo[2,3-d]pyrimidin-6-yl)-3-azaspiro[5.5]undec-8-en-3-yl)prop-2-en-1-one] | F (a selectivity ratio greater than 50 but less than or equal to 150) | G (a selectivity ratio greater than 150 but less than or equal to 500)
12 | 30 to 100 | > 100 | > 100 | C=CC(=O)N1CCC2(CC=C(c3c(-c4cncnc4)c4c(N)ncnc4n3C)CC2)CC1 [Example 32, 1-(9-(4-amino-7-methyl-5-(pyrimidin-5-yl)-7H-pyrrolo[2,3-d]pyrimidin-6-yl)-3-azaspiro[5.5]undec-8-en-3-yl)prop-2-en-1-one] | F (a selectivity ratio greater than 50 but less than or equal to 150) | G (a selectivity ratio greater than 150 but less than or equal to 500)
13 | 1 to 10 | > 100 | > 100 | C=CC(=O)N1CCC2(CC=C(c3c(-c4ncccn4)c4c(N)ncnc4n3CCO)CC2)CC1 [Example 54, 1-(9-(4-amino-7-(2-hydroxyethyl)-5-(pyrimidin-2-yl)-7H-pyrrolo[2,3-d]pyrimidin-6-yl)-3-azaspiro[5.5]undec-8-en-3-yl)prop-2-en-1-one] | F (a selectivity ratio greater than 50 but less than or equal to 150) | G (a selectivity ratio greater than 150 but less than or equal to 500)
14 | 10 to 30 | > 100 | > 100 | C=CC(=O)N1CCC2(CC=C(c3c(-c4nccc(C)n4)c4c(N)ncnc4n3C)CC2)CC1 [Example 35, 1-(9-(4-amino-7-methyl-5-(4-methylpyrimidin-2-yl)-7H-pyrrolo[2,3-d]pyrimidin-6-yl)-3-azaspiro[5.5]undec-8-en-3-yl)prop-2-en-1-one] | F (a selectivity ratio greater than 50 but less than or equal to 150) | G (a selectivity ratio greater than 150 but less than or equal to 500)

Reference: US20260152503A1, “SPIROBICYCLIC COMPOUNDS” (ACERAND THERAPEUTICS (HONG KONG) LIMITED, priority 2022, published 2026)
